Data published in PubChem BioAssay (NCI).
“And” between values parts separate entries of the source, which are not always exact repeats. Equal values may be shown once.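 Test compounds were applied to cells in 96-well plates for 48 hours at 5 doses. GI50 marks 50% less growth. At the TGI there is no net growth.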

How the values were obtained:
Test in all cases: NCI anticancer screen, dose series, 48 h
[1] = test system: HOP-62 NSCLC
[2] = test system: MALME-3M melanoma
[3] = test system: BT-549 breast
[4] = test system: NCI/ADR-RES ovarian
[5] = test system: K-562 leukemia
[6] = test system: PC-3 prostate
[7] = test system: IGROV1 ovarian
[8] = test system: NCI-H522 lung
[9] = test system: RPMI-8226 leukemia
[10] = test system: EKVX NSCLC

SMILES	GI50 [1] [µM]	TGI [1] [µM]	GI50 [2] [µM]	TGI [2]	GI50 [3] [µM]	TGI [3] [µM]	GI50 [4]	TGI [4] [µM]	GI50 [5] [µM]	TGI [5] [µM]	GI50 [6] [µM]	TGI [6] [µM]	GI50 [7] [µM]	TGI [7] [µM]	GI50 [8] [µM]	TGI [8] [µM]	GI50 [9] [µM]	TGI [9] [µM]	GI50 [10]	TGI [10]
COc1ccc(C(=O)c2no[n+]([O-])c2C(=O)c2ccc(OC)cc2)cc1	15.2	29.3	0.82	3.07 µM	4.84	17.2	10.7 µM	28.7	2.36	7.17	5.21	16.8	2.3	5.53	0.205	0.429	2.06	4.85	7.54 µM	22.5 µM
Nc1ncnc2c1ncn2C1OC(F)(COS(N)(=O)=O)C(O)C1O (stereo unspecified)	> 100	> 100	> 100	> 100 µM	> 100	> 100	> 100 µM	> 100	> 100	> 100	> 100	> 100	> 100	> 100	> 100	> 100	> 100	> 100	> 100 µM	> 100 µM
NC(=O)c1c(NC(=O)c2ccc(C(F)(F)F)cc2Cl)sc2c1CCC(=O)C2	1.25	> 44.5	0.292	1.39 µM	0.294	1.91	0.448 µM	3.38	0.126		0.164	1.3	0.498	2.37	0.186	0.844			1.62 µM	4.93 µM
O=C1c2ccccc2-n2c1nc1ccc([N+](=O)[O-])cc1c2=O		> 100		> 100 µM		> 100		> 100		> 100		> 100		> 100		> 100		84.4		> 100 µM
O=C(Nc1cccc2[nH]c(C(F)(F)F)nc12)c1ccc(Br)cc1F	2.43	8.88	2.86	6.82 µM	3.01	10.3	3.35 µM	12.2	3.37	39.2	2.75	10.4	6.75	32.4	2.55	8.26	2.44	7.9		
O=C1C2C3C=CC(C2C(=O)N1CN1CCOCC1)C1C2C(=O)N(CN4CCOCC4)C(=O)C2C31 (stereo unspecified)		> 100		> 100 µM		> 100		> 100		> 79.3		> 100		> 94.6		> 55.2		> 71.9		> 100 µM
C[C@H]1CCC/C=C/[C@@H]2C[C@H](O)C[C@H]2[C@H](O)C(O)C(O)C(=O)O1 (stereo partly specified)	4.85	> 100	1.56	5.57 µM	2.72	> 100	1.62 µM		2.38	> 23.6	3.44	> 29.8	2.96	11.7	2.26	4.52	2.66	14.9	4.24 µM	> 100 µM
CC(C)C[C@H](NC(=O)[C@@H](N)Cc1cccc2ccccc12)B(O)O	0.831		0.156	0.426 µM and 0.0707 µM	0.87		1.39 µM and 0.183 µM				1.12		0.836			0.741		< 0.0272	1.23 µM and 0.167 µM	5 µM and 3.13 µM
COc1cccc(/C=C2\COc3ccc(O)c(O)c3C2=O)c1OC	8.79	22.8	2.09	6.11 µM	1.89	8.7	3.48 µM	97.2	1.47	> 100	2.22	11	2.62	10.9	0.19	0.473	0.547	8.7	4.29 µM	16.9 µM
O=c1oc2cc(O)ccc2cc1-c1nc2ccccc2o1		> 100		> 100 µM		54		> 100		> 100		> 100		> 100		56.1		75.8		> 100 µM
CCOC(=O)CCC(NC(=O)c1ccc(Oc2nc3cc(N)cc(N)c3nc2-c2ccccc2)cc1)C(=O)OCC (stereo unspecified)	36.6	87.1	18.5	35.2 µM	33.7	> 100	27.5 µM	> 100			73.5	> 100	18.2	78.7	27.5	> 100	> 100	> 100	62 µM	> 100 µM
CN(C)Cc1c[nH]c2nc[nH]c(=O)c12		> 100		> 100 µM		> 100		> 100		44.4		> 100		> 100		> 100		59.4		> 100 µM
CN(COC(=O)C(C)(C)C)c1nc(N(C)COC(=O)C(C)(C)C)nc(N(C)COC(=O)C(C)(C)C)n1		> 100		98.5 µM		> 100		> 100		> 100		> 100		> 100		> 100				> 100 µM
O=NN(CC(=O)NNc1ccccc1)CC(=O)NNc1ccccc1	> 100	> 100	42	> 100 µM	> 28.7	> 100	14.2 µM	> 100	0.579	> 100	5.64	> 100	> 64	> 100	1.27	> 100	12.4	> 100		
C=CC(=O)N1CCN(c2nc(OC[C@@H]3CCCN3C)nc3c(F)c(-c4nc(N)cc(C)c4C(F)(F)F)c(Cl)cc23)[C@@H](C)C1		13.1	1.86	3.37 µM	1.71	3.32	12.8 µM	27.8	2.47	8.92	2.91	12	1.7	3.54	1.21	2.75	2.49	7.06	1.98 µM	4.8 µM
N#C/C(=C\c1ccccn1)c1nc2ccccc2o1	> 100	> 100	25.2	> 100 µM	17.3	36.1	33.4 µM	> 100	28.6	> 100	17.6	50.5	18.4	> 100	16.6	37	18.5	52.4	24.2 µM	> 100 µM
C(#Cc1ccccc1C#Cc1cnccn1)c1cnccn1	26.3	85.8	29.8	80.4 µM	21.6	> 85.8	23.2 µM	> 75.8	9.02	> 44.3	18.6	55.3	> 22.9	> 47.9	> 39.2	> 61.7	21.2	> 63.4	35.3 µM	> 100 µM
CCc1n(Cc2ccc3ccccc3c2)cc[n+]1Cc1ccc2ccccc2c1	1.42	3.65	0.247	1.3 µM	0.674	2.12	19.2 µM	62.4	0.404	2.27	0.699	2.49	0.736	2.32	0.303	1.44	0.376	1.8	0.766 µM	5.55 µM
Cc1ccc(S(=O)(=O)NC(=O)Nc2ncn[nH]2)cc1		> 100		> 100 µM		> 100		> 100		> 100		> 100		> 100		> 100		> 100		> 100 µM
Nc1ncnc2occ(-c3ccc(NC(=O)Nc4cccc(C(F)(F)F)c4)cc3)c12	5.09	10	5.74	13.3 µM	4.32	10.5	4.51 µM	16.2	1.3	25	4.94	13.3	2.02	10.2	4.18	8.92	4.86	15.3	4.46 µM	14.5 µM
Cc1nc2ccccc2c(/C=C/c2ccc(F)cc2)c1C(=O)/C=C/c1ccccc1	1.91	4.27	2.18	5.03 µM	2.98	13.6	2.61 µM	7.48	2.44	8.24	2.53	8.81	1.71	6.15	2	5.79	1.87	5.95	4.38 µM	43.5 µM
CC(=O)OC1CCC2(C)C(=CCC3C2CCC2(C)C3CC3OC4(CCC(C)CN4)C(C)C32)C1 (stereo unspecified)		> 100		> 100 µM		> 100		> 100		> 100		> 100		> 100		> 100		> 100		> 100 µM
CC(C)OC(=O)NNc1c(Cl)cc(Cl)cc1Cl		> 100		74.2 µM		> 100		> 100		> 100		> 100		> 100		95.4		> 100		> 100 µM
CC(C)(C)c1ccc(OCCCCCCCN2CCNCC2)cc1	1.3	2.92	1.6	3.17 µM	1.53	3.01	2.46 µM	6.94	1.56	3.81	1.66	3.85	1.92	3.66			1.83	4.25	3.04 µM	12.7 µM
CN(C)Cc1nsc(N(C)C)n1		> 100		> 100 µM		> 100		> 100		> 100		> 100		> 100		> 100		> 100		> 100 µM
CC(=O)OC1C(C)OC(Oc2c(-c3ccc(O)cc3)oc3cc(O)cc(O)c3c2=O)C(O)C1OC(C)=O (stereo unspecified)	35.9	> 100	21.3	> 75.2 µM	19.9	54.8	> 100 µM	> 100	30.8	> 100	30.5	> 100	31.7	> 79.8	18.5	47.4	23.4	70.4	54.2 µM	> 100 µM
COc1cccc(C2=C(c3cn(C)c4c(C)cccc34)C(=O)NC2=O)c1	> 25	> 25	> 25	> 25 µM	> 25	> 25	> 21.4 µM	> 25	12.8	> 25	> 18.3	> 25	> 25	> 25	> 18.2	> 25	> 25	> 25		
Cc1cc(N)c2cc(NC(=O)/C=C\c3ccccc3Cl)ccc2n1	0.725	1.73	2.05	3.89 µM	1.58	3.01	> 24.2 µM	> 100	0.416	1.48	1.46	2.84	1.61	3.07	1.71	3.29			1.53 µM	3.1 µM
O=C(NCCc1nccs1)c1cnc2c(S)cccc2c1	4.13	20.9	4.03	52.4 µM	2.61	> 100	2.97 µM	> 100	0.98	> 100	4.39	26.6	1.96	24.7			4.15	> 100	3.1 µM	38.2 µM
